The text below walks through data of patent publication US10398717B2, “Pharmaceutical composition based on a hepatoprotector and prebiotic, and method for administrating” (priority 2008, dated 2019).

For one series, the system named is colon contents. Particulars: in vivo; cited from earlier work.
For series [1] the following is noted: cited from earlier work.
For another series, the system named is Sprague-Dawley rats. The series can be described thus: High-fat diet induced non-alcoholic hepatitis model. Particulars: liver histology, day 121; oral administration during 90 days. Type of series: in vivo. Here is the method:
The control group (Group 4, n=14 in each group) was administered an equal amount of 1% methyl cellulose suspension. The animals were monitored for 120 days on the background of continuous pathology induction. Administration of drugs began after 30 days from the beginning of diet supplementation (10 % lard and 2% cholesterol for each 100 g feed). The effect of therapy was assessed by biochemical parameters (ALT, AST, triglycerides) and liver histology. On day 121, animals were euthanized and liver histology was performed. In the control group, […] of animals developed steatosis.

Series [2] deals with patients with diffuse liver diseases (cirrhosis, hepatitis) with intrhepatic cholestasis syndrome. The following applies: human, in vivo; cited from earlier work.

On to `OC[C@H]1O[C@@H](O[C@@H]2[C@@H](CO)O[C@](O)(CO)[C@H]2O)[C@H](O)[C@@H](O)[C@H]1O` [lactulose, 4-0-D-galactopyranosyl-D-fructose], for which the “increase of volume of colon contents” value with colon contents was “about 30%”. In addition, in series [1], the solubility in water result was “very soluble in water”.

Turning to `C[C@H](CCC(=O)O)[C@H]1CC[C@H]2[C@@H]3[C@@H](O)C[C@@H]4C[C@H](O)CC[C@]4(C)[C@H]3CC[C@]12C` [Group 3, ursodeoxycholic acid], the “rats in which signs of steatosis, ballooning, and inflammation improved” value with Sprague-Dawley rats was found to be 50%.

Consider `C[S+](CC[C@H](N)C(=O)[O-])C[C@H]1O[C@@H](n2cnc3c(N)ncnc32)[C@H](O)[C@@H]1O` (stereo partly drawn) [ademethionine, S-adenosil-L-metionine], for which, in series [2], the “duration of antiasthenic, anticholestatic and hepatoprotective effects after the treatment was stopped” value was 3 months; the “patients with decrease of intensity of asthenic syndrome” value is listed as 46%; the “patients with disappearance of asthenic syndrome” value is reported as 54%.
